Experimental data from ChEMBL document CHEMBL1201862, “PubChem BioAssay data set” (2004).
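Interpolation was linear, between the two tested concentrations surrounding the appropriate level; five concentrations were tested over 48 hours in 96-well plates. The concentration for 50% growth inhibition is given as GI50.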 Calls of active or inactive are those of the source. Cut-off read from the data, not from the text of the source: active = GI50 up to about 1.1 µM and inactive = higher.

What was measured:
Test in all cases: NCI-60 cell line screen, 48 h
786-0 = test system: 786-0
A498 = test system: A498
A549 = test system: A549
ACHN = test system: ACHN
CCRF-CEM = test system: CCRF-CEM
COLO 205 = test system: COLO 205
DMS-114 = test system: DMS-114
DMS-273 = test system: DMS-273
EKVX = test system: EKVX
HCC 2998 = test system: HCC 2998
HCT-116 = test system: HCT-116
HCT-15 = test system: HCT-15
HL-60 = test system: HL-60
HOP-18 = test system: HOP-18
HOP-62 = test system: HOP-62
HOP-92 = test system: HOP-92
HT-29 = test system: HT-29
IGROV-1 = test system: IGROV-1
K562 = test system: K562
KM-20L2 = test system: KM-20L2
KM12 = test system: KM12
LOX IMVI = test system: LOX IMVI
M14 = test system: M14
M19-MEL = test system: M19-MEL
MOLT-4 = test system: MOLT-4
Malme-3M = test system: Malme-3M
NCI-H226 = test system: NCI-H226
NCI-H23 = test system: NCI-H23
NCI-H460 = test system: NCI-H460
OVCAR-3 = test system: OVCAR-3
OVCAR-4 = test system: OVCAR-4
OVCAR-5 = test system: OVCAR-5
OVCAR-8 = test system: OVCAR-8
RPMI-8226 = test system: RPMI-8226
RXF 393 = test system: RXF 393
RXF 631 = test system: RXF 631
SF-268 = test system: SF-268
SF-295 = test system: SF-295
SF-539 = test system: SF-539
SK-MEL-28 = test system: SK-MEL-28
SK-MEL-2 = test system: SK-MEL-2
SK-MEL-5 = test system: SK-MEL-5
SK-OV-3 = test system: SK-OV-3
SN12C = test system: SN12C
SNB-75 = test system: SNB-75
SNB-78 = test system: SNB-78
SR = test system: SR
TK-10 = test system: TK-10
U-251 = test system: U-251
UACC-257 = test system: UACC-257
UACC-62 = test system: UACC-62
UO-31 = test system: UO-31
XF498 = test system: XF498
CAKI-1 = test system: CAKI-1
DLD-1 = test system: DLD-1
LXFL 529 = test system: LXFL 529
SNB-19 = test system: SNB-19
SW-620 = test system: SW-620
BT-549 = test system: BT-549
DU-145 = test system: DU-145
Hs-578T = test system: Hs-578T
MCF7 = test system: MCF7
MDA-MB-231 = test system: MDA-MB-231
MDA-MB-435 = test system: MDA-MB-435
MDA-N = test system: MDA-N
NCI-H522 = test system: NCI-H522
NCI/ADR-RES = test system: NCI/ADR-RES
PC-3 = test system: PC-3
T47D = test system: T47D

## O=S(=O)(N/N=C/c1ccc(/C=N/NS(=O)(=O)c2ccccc2)cc1)c1ccccc1
786-0
  GI50: 50.6 µM (inactive)
A498
  GI50: 68.5 µM (inactive)
A549
  GI50: 77.6 µM (inactive)
ACHN
  GI50: 55.8 µM (inactive)
CCRF-CEM
  GI50: 30.3 µM (inactive)
COLO 205
  GI50: 21.4 µM (inactive)
DMS-114
  GI50: 54.8 µM (inactive)
DMS-273
  GI50: 46.8 µM (inactive)
EKVX
  GI50: 72.9 µM (inactive)
HCC 2998
  GI50: > 100 µM (inactive)
HCT-116
  GI50: 57.3 µM (inactive)
HCT-15
  GI50: 44.1 µM
HL-60
  GI50: 23.2 µM (inactive)
HOP-18
  GI50: 84.3 µM (inactive)
HOP-62
  GI50: 44.9 µM (inactive)
HOP-92
  GI50: 31.8 µM (inactive)
HT-29
  GI50: 59.6 µM (inactive)
IGROV-1
  GI50: 37.9 µM (inactive)
K562
  GI50: 29.4 µM (inactive)
KM-20L2
  GI50: > 100 µM (inactive)
KM12
  GI50: 35.8 µM (inactive)
LOX IMVI
  GI50: 16 µM (inactive)
M14
  GI50: > 100 µM (inactive)
M19-MEL
  GI50: 50.6 µM (inactive)
MOLT-4
  GI50: 21.5 µM (inactive)
Malme-3M
  GI50: > 100 µM (inactive)
NCI-H226
  GI50: > 100 µM (inactive)
NCI-H23
  GI50: 35.2 µM (inactive)
NCI-H460
  GI50: 49.9 µM (inactive)
OVCAR-3
  GI50: 30.7 µM (inactive)
OVCAR-4
  GI50: 63.7 µM (inactive)
OVCAR-5
  GI50: 4.36 µM (inactive)
OVCAR-8
  GI50: 42 µM (inactive)
RPMI-8226
  GI50: 45 µM (inactive)
RXF 393
  GI50: 27.7 µM (inactive)
RXF 631
  GI50: 36.4 µM (inactive)
SF-268
  GI50: > 100 µM (inactive)
SF-295
  GI50: 15.5 µM (inactive)
SF-539
  GI50: 29 µM (inactive)
SK-MEL-28
  GI50: 81.7 µM (inactive)
SK-MEL-2
  GI50: 43.5 µM (inactive)
SK-MEL-5
  GI50: 39.4 µM (inactive)
SK-OV-3
  GI50: > 100 µM (inactive)
SN12C
  GI50: 42.6 µM (inactive)
SNB-75
  GI50: 70.3 µM (inactive)
SNB-78
  GI50: 61.8 µM (inactive)
SR
  GI50: 29 µM (inactive)
TK-10
  GI50: 60.7 µM (inactive)
U-251
  GI50: 41 µM (inactive)
UACC-257
  GI50: 53.2 µM (inactive)
UACC-62
  GI50: 24.9 µM (inactive)
UO-31
  GI50: 63.2 µM (inactive)
XF498
  GI50: 68.9 µM (inactive)

## CCOC(=O)/C=C(\C)c1ccc(Cl)cc1
A498
  GI50: > 100 µM (inactive)
A549
  GI50: > 100 µM (inactive)
ACHN
  GI50: > 100 µM (inactive)
CAKI-1
  GI50: > 100 µM (inactive)
CCRF-CEM
  GI50: > 100 µM (inactive)
COLO 205
  GI50: > 100 µM (inactive)
DLD-1
  GI50: > 100 µM (inactive)
DMS-114
  GI50: > 100 µM (inactive)
DMS-273
  GI50: > 100 µM (inactive)
EKVX
  GI50: > 100 µM (inactive)
HCC 2998
  GI50: > 100 µM (inactive)
HCT-116
  GI50: > 100 µM (inactive)
HCT-15
  GI50: > 100 µM
HL-60
  GI50: > 100 µM (inactive)
HOP-18
  GI50: > 100 µM (inactive)
HOP-92
  GI50: > 100 µM (inactive)
HT-29
  GI50: > 100 µM (inactive)
IGROV-1
  GI50: > 100 µM (inactive)
K562
  GI50: > 100 µM (inactive)
KM-20L2
  GI50: > 100 µM (inactive)
KM12
  GI50: > 100 µM (inactive)
LOX IMVI
  GI50: > 100 µM (inactive)
LXFL 529
  GI50: > 100 µM (inactive)
M14
  GI50: > 100 µM (inactive)
MOLT-4
  GI50: > 100 µM (inactive)
Malme-3M
  GI50: > 100 µM (inactive)
NCI-H226
  GI50: 54.8 µM (inactive)
NCI-H23
  GI50: > 100 µM (inactive)
NCI-H460
  GI50: > 100 µM (inactive)
OVCAR-4
  GI50: > 100 µM (inactive)
OVCAR-5
  GI50: > 100 µM (inactive)
OVCAR-8
  GI50: > 100 µM (inactive)
RPMI-8226
  GI50: > 100 µM (inactive)
RXF 393
  GI50: > 100 µM (inactive)
RXF 631
  GI50: > 100 µM (inactive)
SF-268
  GI50: > 100 µM (inactive)
SF-295
  GI50: > 100 µM (inactive)
SF-539
  GI50: > 100 µM (inactive)
SK-MEL-28
  GI50: > 100 µM (inactive)
SK-MEL-2
  GI50: > 100 µM (inactive)
SN12C
  GI50: > 100 µM (inactive)
SNB-19
  GI50: > 100 µM (inactive)
SNB-75
  GI50: > 100 µM (inactive)
SNB-78
  GI50: > 100 µM (inactive)
SR
  GI50: > 100 µM (inactive)
SW-620
  GI50: > 100 µM (inactive)
TK-10
  GI50: > 100 µM (inactive)
U-251
  GI50: > 100 µM (inactive)
UACC-257
  GI50: > 100 µM (inactive)
UO-31
  GI50: > 100 µM (inactive)
XF498
  GI50: > 100 µM (inactive)

## C=C(CN(C)C)C(=O)c1ccccc1[N+](=O)[O-]
786-0
  GI50: 12.2 µM (inactive)
A498
  GI50: > 57.8 µM (inactive)
A549
  GI50: > 57.8 µM (inactive)
ACHN
  GI50: 16.1 µM (inactive)
BT-549
  GI50: 16.3 µM (inactive)
CAKI-1
  GI50: 14.2 µM (inactive)
COLO 205
  GI50: 7.8 µM (inactive)
DLD-1
  GI50: 13.4 µM (inactive)
DMS-114
  GI50: 18.3 µM (inactive)
DMS-273
  GI50: 18.2 µM (inactive)
DU-145
  GI50: 23.6 µM (inactive)
EKVX
  GI50: > 43.5 µM (inactive)
HCC 2998
  GI50: 29.9 µM (inactive)
HCT-116
  GI50: 17.3 µM (inactive)
HCT-15
  GI50: 10.8 µM
HL-60
  GI50: 2.79 µM (inactive)
HOP-18
  GI50: 18.7 µM (inactive)
HOP-62
  GI50: 38.7 µM (inactive)
HOP-92
  GI50: 9.14 µM (inactive)
HT-29
  GI50: 19.2 µM (inactive)
Hs-578T
  GI50: 22.9 µM (inactive)
IGROV-1
  GI50: 22.2 µM (inactive)
K562
  GI50: 3.39 µM (inactive)
KM-20L2
  GI50: 23.4 µM (inactive)
KM12
  GI50: 31.1 µM (inactive)
LOX IMVI
  GI50: 7.94 µM (inactive)
LXFL 529
  GI50: 14.8 µM (inactive)
M14
  GI50: 15.5 µM (inactive)
M19-MEL
  GI50: 17.8 µM (inactive)
MCF7
  GI50: 14.3 µM (inactive)
MDA-MB-231
  GI50: 18.2 µM (inactive)
MDA-MB-435
  GI50: 16.1 µM (inactive)
MDA-N
  GI50: 14.5 µM (inactive)
Malme-3M
  GI50: 7.76 µM (inactive)
NCI-H226
  GI50: 30.1 µM (inactive)
NCI-H23
  GI50: 16.9 µM (inactive)
NCI-H460
  GI50: 34 µM (inactive)
NCI-H522
  GI50: 3.56 µM (inactive)
NCI/ADR-RES
  GI50: 19.2 µM (inactive)
OVCAR-3
  GI50: 18.9 µM (inactive)
OVCAR-4
  GI50: 16.9 µM (inactive)
OVCAR-5
  GI50: 15.8 µM (inactive)
OVCAR-8
  GI50: 20.2 µM (inactive)
PC-3
  GI50: 17.4 µM (inactive)
RXF 393
  GI50: 16.1 µM (inactive)
RXF 631
  GI50: 19 µM (inactive)
SF-268
  GI50: 27.2 µM (inactive)
SF-295
  GI50: 32.8 µM (inactive)
SF-539
  GI50: 39.7 µM (inactive)
SK-MEL-28
  GI50: 17.6 µM (inactive)
SK-MEL-2
  GI50: 18 µM (inactive)
SK-MEL-5
  GI50: 18.8 µM (inactive)
SK-OV-3
  GI50: 37.2 µM (inactive)
SN12C
  GI50: 17.7 µM (inactive)
SNB-19
  GI50: > 56.4 µM (inactive)
SNB-75
  GI50: 34.8 µM (inactive)
SNB-78
  GI50: 26.7 µM (inactive)
SR
  GI50: 3.38 µM (inactive)
SW-620
  GI50: 11.3 µM (inactive)
T47D
  GI50: 3.83 µM (inactive)
TK-10
  GI50: 19.5 µM (inactive)
U-251
  GI50: 32.2 µM (inactive)
UACC-257
  GI50: 15.8 µM (inactive)
UACC-62
  GI50: 17.9 µM (inactive)
UO-31
  GI50: 17.7 µM (inactive)
XF498
  GI50: 17.1 µM (inactive)
